Experimental data published in patent US20040156869A1, “2-substituted quinazolin-4-ylamine analogues” (Neurogen Corporation, priority 2002, published 2004).

biological target: human capsaicin receptor (VR1) (Homo sapiens, UniProt Q8NER1); assay: Capsaicin receptor binding assay ([3H]RTX competition, VR1-transfected HEK293 membranes)
Sequence (Q8NER1 whole entry): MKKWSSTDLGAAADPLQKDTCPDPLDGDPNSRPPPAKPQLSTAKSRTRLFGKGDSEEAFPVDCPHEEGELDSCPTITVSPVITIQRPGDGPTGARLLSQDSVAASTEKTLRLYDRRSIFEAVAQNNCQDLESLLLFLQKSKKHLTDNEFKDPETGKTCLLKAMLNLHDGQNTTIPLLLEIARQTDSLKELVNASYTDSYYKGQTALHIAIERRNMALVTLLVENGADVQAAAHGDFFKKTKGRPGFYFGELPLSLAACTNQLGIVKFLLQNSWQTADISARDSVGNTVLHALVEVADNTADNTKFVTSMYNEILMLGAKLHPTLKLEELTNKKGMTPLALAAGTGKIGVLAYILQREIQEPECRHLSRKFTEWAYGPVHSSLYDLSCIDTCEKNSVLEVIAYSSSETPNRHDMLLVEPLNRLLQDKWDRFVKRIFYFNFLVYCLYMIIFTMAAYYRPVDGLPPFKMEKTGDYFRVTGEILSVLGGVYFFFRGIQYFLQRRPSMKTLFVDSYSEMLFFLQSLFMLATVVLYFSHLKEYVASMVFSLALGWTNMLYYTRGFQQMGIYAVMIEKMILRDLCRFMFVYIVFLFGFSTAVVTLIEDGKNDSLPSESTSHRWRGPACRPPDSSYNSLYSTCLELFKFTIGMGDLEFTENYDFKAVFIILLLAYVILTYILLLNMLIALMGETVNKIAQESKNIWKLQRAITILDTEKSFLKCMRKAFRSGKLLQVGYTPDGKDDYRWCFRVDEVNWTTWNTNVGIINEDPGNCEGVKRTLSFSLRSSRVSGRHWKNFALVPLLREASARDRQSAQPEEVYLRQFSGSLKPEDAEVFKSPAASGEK

Ki, < 1 µM:
FC(F)(F)c1ccc(Nc2nc(COC3CCOCC3)nc3cc(-c4ncccc4C(F)(F)F)ccc23)cn1 [Compound 154, [2-(Tetrahydro-pyran-4-yloxymethyl)-7-(3-trifluoromethyl-pyridin-2-yl)-quinazolin-4-yl]-(6-trifluoromethyl-pyridin-3-yl)-amine]
CC(C)(C)c1ccc(Nc2nc(CO)nc3cc(-c4ncccc4C(F)(F)F)ccc23)cc1 [Compound 155, [4-(4-tert-Butyl-phenylamino)-7-(3-trifluoromethyl-pyridin-2-yl)-quinazolin-2-yl]-methanol]
CC(C)c1ccc(Nc2nc(CO)nc3cc(-c4ncccc4C(F)(F)F)ccc23)cc1 [Compound 156, [4-(4-Isopropyl-phenylamino)-7-(3-trifluoromethyl-pyridin-2-yl)-quinazolin-2-yl]-methanol]
CC(C)(C)c1ccc(Nc2nc(CO)nc3cc(-c4ncccc4Cl)ccc23)cc1 [Compound 157, [4-(4-tert-Butyl-phenylamino)-7-(3-chloro-pyridin-2-yl)-quinazolin-2-yl]-methanol]
CC(C)c1ccc(Nc2nc(CO)nc3cc(-c4ncccc4Cl)ccc23)cc1 [Compound 158, [7-(3-Chloro-pyridin-2-yl)-4-(4-isopropyl-phenylamino)-quinazolin-2-yl]-methanol]
COCc1nc(Nc2ccc(S(=O)(=O)C(F)(F)F)cc2)c2ccc(-c3ncccc3C)nc2n1 [Compound 159, [2-Methoxymethyl-7-(3-methyl-pyridin-2-yl)-pyrido[2,3-d]pyrimidin-4-yl]-(4-trifluoromethanesulfonyl-phenyl)-amine]
COCc1nc(Nc2ccc(C3(C(=O)N4C[C@@H](C)O[C@@H](C)C4)CCC3)cc2)c2ccc(-c3ncccc3C(F)(F)F)nc2n1 [Compound 160, (2,6-Dimethyl-morpholin-4-yl)-(1-{4-[2-methoxymethyl-7-(3-trifluoromethyl-pyridin-2-yl)-pyrido[2,3-d]pyrimidin-4-ylamino]-phenyl}-cyclobutyl)-methanone]
Cc1cccnc1-c1ccc2c(Nc3ccc(C(C)(C)C#N)cc3)nc(COCC(C)C)nc2n1 [Compound 161, 2-{4-[2-Isobutoxymethyl-7-(3-methyl-pyridin-2-yl)-pyrido[2,3-d]pyrimidin-4-ylamino]-phenyl}-2-methyl-propionitrile]
CC(C)COCc1nc(Nc2ccc(C(C)(C)C)cc2)c2ccc(-c3ncccc3C(F)(F)F)nc2n1 [Compound 162, (4-terr-Butyl-phenyl)-[2-isobutoxymethyl-7-(3-trifluoromethyl-pyridin-2-yl)-pyrido[2,3-d]pyrimidin-4-yl]-amine]
CC(C)COCc1nc(Nc2ccc(C(C)C)cc2)c2ccc(-c3ncccc3C(F)(F)F)nc2n1 [Compound 163, [2-Isobutoxymethyl-7-(3-trifluoromethyl-pyridin-2-yl)-pyrido[2,3-d]pyrimidin-4-yl]-(4-isopropyl-phenyl)-amine]
CC(C)COCc1nc(Nc2ccc(C(F)(F)F)cc2)c2ccc(-c3ncccc3C(F)(F)F)nc2n1 [Compound 164, [2-Isobutoxymethyl-7-(3-trifluoromethyl-pyridin-2-yl)-pyrido[2,3-d]pyrimidin-4-yl]-(4-trifluoromethyl-phenyl)-amine]
CC(C)COCc1nc(Nc2ccc(C(F)(F)F)nc2)c2ccc(-c3ncccc3C(F)(F)F)nc2n1 [Compound 165, [2-Isobutoxymethyl-7-(3-trifluoromethyl-pyridin-2-yl)-pyrido[2,3-d]pyrimidin-4-yl]-(6-trifluoromethyl-pyridin-3-yl)-amine]
Cc1cc(Nc2nc(COCC(C)C)nc3nc(-c4ncccc4C(F)(F)F)ccc23)ccc1C(F)(F)F [Compound 166, [2-Isobutoxymethyl-7-(3-trifluoromethyl-pyridin-2-yl)-pyrido[2,3-d]pyrimidin-4-yl]-(3-methyl-4-trifluoromethyl-phenyl)-amine]
